# Data reported in ChEMBL document CHEMBL1135253, “Formation of thomasidioic acid from dehydrosinapinic acid dilactone under neutral conditions, and a remaining inhibitory activity against peroxynitrite-mediated protein nitration” (Bioorg Med Chem Lett, 2002).
# How the values were obtained:
# [1] = Inhibitory activity of compound was tested against peroxinitrite in collagen type I with concentration 50 uM of each sample was treated with 1.0 mM peroxynitrite
# [2] = Inhibitory activity of compound was tested against peroxinitrite in collagen type I at concentration 100 uM of each sample was treated with 1.0 mM peroxynitrite
# [3] = Inhibitory activity of compound was tested against peroxinitrite of collagen type I with concentration 50 uM of each sample was treated with 1.0 mM peroxynitrite
Activity [1],Activity [2],Activity [3],SMILES
0.25,–,–,COc1cc(/C=C(C(=O)O)\C(=C/c2cc(OC)c(O)c(OC)c2)C(=O)O)cc(OC)c1O
1,0.3,–,COc1cc(/C=C/C(=O)O)cc(OC)c1O
–,–,0.7,COc1cc([C@H]2c3c(cc(OC)c(O)c3OC)C=C(C(=O)O)[C@@H]2C(=O)O)cc(OC)c1O
